{"source": "patent US20190167649A1", "about": "“TOPICAL RAPAMYCIN THERAPY” (THE BOARD OF REGENTS OF THE UNIVERSITY OF TEXAS SYSTEM, priority 2016, published 2019)", "origin": "cited, not measured here", "data": [{"substance": "Rapamycin", "values": [{"measurement": "solubility in organic solvents", "setting": "benzyl alcohol, chloroform, acetone, and acetonitrile", "value": "freely soluble"}, {"measurement": "solubility in water", "setting": "water", "value": 2.6, "unit": "µg/mL"}]}]}
